Six compounds from patent publication US20100016335A1, “NOVEL AMINOPYRIDINE DERIVATIVES HAVING AURORA A SELECTIVE INHIBITORY ACTION” (priority 2006, published 2010) can be followed below.

pIC50: −log10 of the molar value. Structures can show the parent of a compound that is named as a salt.

One test has as its target T1, human Aurora A (Homo sapiens, UniProt O14965).
T1 construct: His (N); made in house; host or cells: Escherichia coli BL21-CodonPlus(DE3)-RIL
T1 sequence (O14965 1-403): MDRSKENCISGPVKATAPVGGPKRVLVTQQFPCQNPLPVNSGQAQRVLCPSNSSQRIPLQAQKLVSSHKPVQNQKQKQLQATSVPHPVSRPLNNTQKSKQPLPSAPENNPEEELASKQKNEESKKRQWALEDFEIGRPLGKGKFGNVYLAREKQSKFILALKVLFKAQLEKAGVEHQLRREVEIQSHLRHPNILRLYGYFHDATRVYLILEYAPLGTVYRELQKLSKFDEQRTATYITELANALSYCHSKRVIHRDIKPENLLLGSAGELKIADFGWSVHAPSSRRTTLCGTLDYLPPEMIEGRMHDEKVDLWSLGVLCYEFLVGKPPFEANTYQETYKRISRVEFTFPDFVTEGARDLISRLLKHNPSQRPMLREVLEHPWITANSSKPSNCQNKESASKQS
Briefly: Aurora A inhibitory activity (IMAP fluorescence polarization phosphorylation assay). The conditions noted are these: 20 μM ATP, 30° C., 120 minutes. The class given is biochemical. The text has this: cDNA of N-terminal His-tagged human Aurora A was integrated into an expression vector, which was then highly expressed in Escherichia coli BL21-CodonPlus(DE3)-RIL cells. The Escherichia coli was harvested and lysed, and then the His-tagged human Aurora A protein was applied onto a nickel chelate column and eluted from the column with imidazole. The active fractions were desalted with a desalting column to give a purified enzyme.
For the phosphorylation reaction, the method by Upstate, Inc. [Kinase Profiler™ Assay Protocols] was referred to, and phosphorylation of the substrate was detected using IMAP® technology (Molecular Devices, Co. Ltd.) (Gaudet E W. et. al, J. Biomol. Screen, 8, 164-175 (2003)). Concretely, the phosphorylation reaction and the detection were carried out as follows:
The phosphorylation reaction was conducted using 384 well plate, and the reaction volume was 10 μl/well. The reaction buffer is comprised of 50 mM Tris-chloride buffer (pH 7.4), 15 mM magnesium acetate, and 0.2 mM ethylenediamine-N,N,N′,N′-tetraacetic acid (EDTA). Thereto, the purified Aurora A protein, 100 nM of the peptide substrate, and 20 μM of adenosine 5′-triphosphate (ATP) were added, and then the reaction was carried out at 30° C. for 120 minutes.
Thereafter, in order to terminate and detect the reaction, 30 μl of the IMAP (registered trademark) binding reagent (IMAP Progressive Binding Reagent, R7284) that had been diluted (1:400) in the 1×IMAP binding buffer A (IMAP Progressive Binding Buffer A, 5× stock, R7282) was added to each well. The solution stood still for 60 minutes in the dark, and then fluorescence polarization was measured using a high-end microplate reader (excitation wavelength: 485 nm; emission wavelength: 520 nm).
The compound to be tested was added to the reaction system such that a dilution series of the compound in dimethylsulfoxide (DMSO) was prepared, and then 0.5 μL of this solution was added for the testing to each well. Each control well was provided by adding 0.5 μL of DMSO to the well in place of the DMSO solution containing the compound to be tested.

In test [1] the target is T2, GST-tagged human Aurora B(AurB)/His-tagged human INCENP complex proteins (Homo sapiens, UniProt Q96GD4).
T2 construct: GST; purchased Carna Biosciences, Inc
Briefly: Aurora B inhibitory activity (Method A, IMAP assay kit). The conditions noted are these: 40 μM ATP, 25° C., 45 minutes. The class given is biochemical. The procedure: An assay development kit for IMAP (registered trademark) (Aurora B), purchased from Carna Biosciences, Inc., was used for phosphorylation reaction, and the phosphorylation of a substrate was detected using the IMAP technology. […] Using the same, the phosphorylation reaction was conducted in accordance with a partially revised protocol attached to the kit, and then the phosphorylation of the substrate was detected using the IMAP technology.
For the phosphorylation reaction, 384 well plate was used, and the reaction volume was 10 μl/well. The composition of the reaction buffer (assay buffer) is comprised of 20 mM of HEPES buffer (pH 7.4), 0.01% Tween-20, and 2 mM of dithiothreitol (DTT). Thereto, AurB/INCENP complex protein, 100 nM of the substrate, and 40 μM of ATP, and 1 mM of magnesium salt were added, and then the reaction was conducted at 25° C. for 45 minutes. Thereafter, in order to terminate and detect the reaction, 30 μl of the IMAP (registered trademark) binding reagent (IMAP Progressive Binding Reagent, R7284) that had been diluted (1:400) in the 1× IMAP binding buffer A (IMAP Progressive Binding Buffer A, 5× stock, R7282) was added to each well.
The compound to be tested was added to the reaction system such that a dilution series of the compound in DMSO was prepared, and then 0.5 μL of this solution was added for the testing to each well. Each control well was provided by adding 0.5 μL of DMSO to the well in place of the DMSO solution containing the compound to be tested.

Test [2] deals with Human cervical cancer cells (HeLa S3). Briefly: Cell growth inhibitory effect, WST-8 method. The class given is cell-based. The settings on record: Homo sapiens, 72 h; HeLa S3, three days incubation; read-out: Cell growth inhibitory effect (HeLaS3) (IC50). The procedure:
Fetal calf serum (FCS) was purchased from Moregate Biotech, and DMEM medium was purchased from Invitrogen Corp. WST-8 was purchased from Kishida Chemical Co., Ltd.
(§1) Human cervical cancer cells (HeLa S3) were obtained from the American Type Culture Collection (ATCC).
Cells were suspended in a DMEM medium containing 10% FCS, and the cell suspension was dispensed to a 96-well plastic plate at a rate of 750 cells/100 microliters per well. The plate was incubated overnight in 5% CO2-95% air at 37° C. A drug was subjected to graded dilution in dimethylsulfoxide and further diluted with a DMEM medium containing 10% FCS. Then, the dilution was dispensed to the plate on which cells had been disseminated in advance, at a rate of 100 microliters per well. The plate was incubated for further three days in 5% CO2-95% air at 37° C. Cell growth after incubation was measured by the WST-8 method (H. Tominaga, et al., Anal. Commun., 36, 47-50 (1999)). Here, the WST-8 method refers to a method in which 20 microliters of a WST-8 reagent solution is added to each well, incubation is conducted at 37° C. for 60 minutes, the plate is stirred, and the amount of formazan produced is measured by a […] method to determine the inhibitory rate of the drug.

For test [3] the test system is unchanged. Briefly: Effect by combined use of drugs in cells (docetaxel), WST-8 method. The class given is cell-based. The conditions noted are these: HeLa S3, three days; for inhibition at 0.3 µM: compound 0.3 μM alone; for inhibition at 1 µM: compound 1.0 μM alone; for inhibition at 0.1 µM: compound 0.1 μM alone. The procedure: Fetal calf serum (FCS) was purchased from Moregate Biotech, DMEM medium from Invitrogen Corp., docetaxel (tradename: Taxere) from Sigma-Aldrich, Inc., and WST-8 from Kishida Chemical Co., Ltd.
as §1
Cells were suspended in a DMEM medium containing 10% FCS, and the cell suspension was dispensed to two 96-well plastic plates at a rate of 750 cells/100 microliters per well. The plates were incubated overnight in 5% CO2-95% air at 37° C. A drug was subjected to graded dilution in dimethylsulfoxide and further diluted with DMSO or with a DMEM medium containing 10% FCS and also containing 0.6 nM docetaxel. Then, the dilutions were each dispensed to one of the plates on which cells had been disseminated in advance, at a rate of 100 microliters per well. The final concentration of docetaxel at this stage was 0.3 nM. Also, the concentrations in the case of sole administration of the compound according to the invention were 0.003, 0.01, 0.03, 0.1, 0.3, 1, 3 and 10 μM. The plates were incubated for further three days in 5% CO2-95% air at 37° C. Cell growth after incubation was measured by the WST-8 method (H. Tominaga, et al., Anal. Commun., 36, 47-50 (1999)). Here, the WST-8 method refers to a method in which 20 microliters of a WST-8 reagent solution is added to each well, incubation is conducted at 37° C. for 60 minutes, the plate is stirred, and the amount of formazan produced is measured by a colorimetric method to determine the inhibitory rate of the drug. The growth inhibitory effects of docetaxel and of the compound according to the invention were determined, with the value obtained in sole treatment of DMSO being defined as 0%.

Where [4] appears, read: Homo sapiens, HeLa S3, 72 h, read-out: Cell growth inhibitory effect by sole administration of the compound of Example (%).
Setting [5] is: compound 0.3 μM + docetaxel 0.3 nM.
Where [6] appears, read: compound 1.0 μM + docetaxel 0.3 nM.
The mark [7] stands for this setting: compound 0.1 μM + docetaxel 0.3 nM.

T2 sequence (Q96GD4 whole entry): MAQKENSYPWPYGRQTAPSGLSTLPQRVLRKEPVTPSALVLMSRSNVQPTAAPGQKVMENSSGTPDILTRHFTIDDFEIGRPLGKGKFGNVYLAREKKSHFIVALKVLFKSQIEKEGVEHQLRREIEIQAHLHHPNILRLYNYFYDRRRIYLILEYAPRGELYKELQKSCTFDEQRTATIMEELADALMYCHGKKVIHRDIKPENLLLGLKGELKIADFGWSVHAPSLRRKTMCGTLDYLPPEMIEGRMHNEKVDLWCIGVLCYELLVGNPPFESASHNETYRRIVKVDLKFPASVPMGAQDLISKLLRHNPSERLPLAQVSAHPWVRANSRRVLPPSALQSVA
T2 sequence (Q9NQS7 803-916 partner limits assumed): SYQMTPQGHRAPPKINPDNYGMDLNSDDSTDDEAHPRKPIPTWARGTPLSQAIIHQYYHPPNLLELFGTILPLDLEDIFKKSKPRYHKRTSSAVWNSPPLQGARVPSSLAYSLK

Regarding `Cl.O=C(O)[C@]1(Cc2cccc(Nc3nccs3)n2)CC[C@@H](Oc2cccc(Cl)c2Cl)CC1` [Example 6, trans-4-(2,3-dichlorophenoxy)-1-((6-(1,3-thiazol-2-ylamino)pyridin-2-yl)methyl)cyclohexanecarboxylic acid hydrochloride], the figures for the pIC50 (at human Aurora A; in test [1]; in test [2]) were 10.15, 7.43 and 5.71, respectively. Moreover, in test [3] (setting [4]), the inhibition at 0.3 µM came to 7.2%. Further, in test [3] (setting [4]), the inhibition at 1 µM came to 25.6%. Further, the “Cell growth inhibitory effect by combined administration of docetaxel and the compound of Example (%)” value (shortened to “Cell growth inhibitory effect … (%)”) in test [3] (setting [5]) worked out at 70.0%; in test [3] (setting [6]), 87.0%.
With `O=c1[nH]nc([C@]2(Cc3cccc(Nc4cc[nH]n4)n3)CC[C@@H]([S+]([O-])c3cccc(Cl)c3Cl)CC2)o1` (stereo partly drawn) [Example 35, 5-(trans-4-((2,3-dichlorophenyl)sulfinyl)-1-((6-(1H-pyrazol-3-ylamino)pyridin-2-yl)methyl)cyclohexyl)-1,3,4-oxadiazol-2(3H)-one trifluoroacetate], the results for the pIC50 (against human Aurora A; in test [1]; in test [2]) were 9.51, 6.92 and 6.66, respectively. The inhibition at 0.03 µM in test [3] (Homo sapiens, HeLa S3, 72 h, compound 0.03 μM alone, read-out: Cell growth inhibitory effect by sole administration of the compound of Example (%)) was found to be 25.1%. For the same compound, the inhibition at 0.1 µM in test [3] (setting [4]) amounted to 42.7%. The “Cell growth inhibitory effect … (%)” value was found to be 78.0% in test [3] (compound 0.03 μM + docetaxel 0.3 nM) and 89.9% in test [3] (setting [7]).
`O=c1[nH]nc([C@]2(Cc3cccc(Nc4cc[nH]n4)n3)CC[C@@H](Sc3cccc(Cl)c3Cl)CC2)o1` [Example 34, 5-(trans-4-((2,3-dichlorophenyl)thio)-1-((6-(1H-pyrazol-3-ylamino)pyridin-2-yl)methyl)cyclohexyl)-1,3,4-oxadiazol-2(3H)-one trifluoroacetate]: the values for the pIC50 (against human Aurora A; in test [1]; in test [2]) were 9.33, 6.16 and 6.06, respectively. In addition, in test [3] (setting [4]), the inhibition at 0.1 µM was 3.9%. For the same compound, in test [3] (setting [4]), the inhibition at 0.3 µM turned out to be 40.8%. In addition, the entries for the “Cell growth inhibitory effect … (%)” value in test [3] (setting [7]) and in test [3] (setting [5]) were 83.8% and 93.9%, respectively.
`NC(=O)[C@]1(Cc2cccc(Nc3nccs3)n2)CC[C@@H](Oc2cccc(Cl)c2F)CC1` [Example 8, trans-4-(3-chloro-2-fluorophenoxy)-1-((6-(1,3-thiazol-2-ylamino)pyridin-2-yl)methyl)cyclohexanecarboxamide]: the figures for the pIC50 (against human Aurora A; in test [1]; in test [2]) were 9.27, 6.82 and 5.90, respectively. For the same compound, the inhibition at 0.3 µM in test [3] (setting [4]) turned out to be 12.2%. In addition, in test [3] (setting [4]), the inhibition at 1 µM stood at 49%. Also, the “Cell growth inhibitory effect … (%)” value is listed as 84.6% in test [3] (setting [5]) and 95.0% in test [3] (setting [6]).
On to `O=C(O)[C@]1(Cc2cccc(Nc3nccs3)n2)CC[C@@H](S(=O)(=O)c2cccc(Cl)c2Cl)CC1` [Example 32, trans-4-((2,3-dichlorophenyl)sulfonyl)-1-((6-(1,3-thiazol-2-ylamino)pyridin-2-yl)methyl)cyclohexanecarboxylic acid trifluoroacetate], for which the pIC50 against human Aurora A was 9.82; in test [1], 7.15; in test [2] it was 6.23. Moreover, the inhibition at 0.1 µM in test [3] (setting [4]) came to 6.3%. In test [3] (setting [4]), the inhibition at 0.3 µM was found to be 40.8%. Also, the “Cell growth inhibitory effect … (%)” value in test [3] (setting [7]) came out at 88.6%; in test [3] (setting [5]), 94.0%.
Turning to `O=c1[nH]nc([C@]2(Cc3cccc(Nc4cc[nH]n4)n3)CC[C@@H](Oc3cccc(C(F)(F)F)c3F)CC2)o1` [Example 20, 5-(trans-4-(2-fluoro-3-(trifluoromethyl)phenoxy)-1-((6-(1H-pyrazol-3-ylamino)pyridin-2-yl)methyl)cyclohexyl)-1,3,4-oxadiazol-2(3H)-one], the pIC50 at human Aurora A was 9.00; in test [1] it was 6.18; in test [2] it was 6.05. For the same compound, the inhibition at 0.3 µM in test [3] (setting [4]) stood at 25.9%. The inhibition at 1 µM in test [3] (setting [4]) worked out at 49.8%. Further, the “Cell growth inhibitory effect … (%)” value is recorded as 85.0% in test [3] (setting [5]) and 94.4% in test [3] (setting [6]).
